The term melting point denotes the temperature of the solid-liquid transition. For orientation: Ki means the dissociation constant of the complex between target and ligand, obtained from inhibition or displacement.

Structures are written as SMILES. Where a name gives a salt, the structure may show the parent alone.

One series has as its target T1, D3 receptor (Rattus norvegicus, UniProt P19020).
T1 construct: expressed in transfected cells
The experiment in a line: Inhibition of [3H]spiperone binding to cloned D3 receptors expressed in HEK-293 cells. Conditions: for Ki: [3H]spiperone, rat D3 in HEK-293 cells.

The next series concerns the target T2, hD3 receptor (Homo sapiens, UniProt P35462).
T2 construct: expressed in transfected cells; host or cells: CHO
Nature of the series: Stimulation of [35S]GTPγS binding, hD3 receptor expressed in CHO cells. The class given is biochemical.

The target in the next series is T3, D2L receptor (Rattus norvegicus, UniProt P61169).
T3 construct: expressed in transfected cells
T3 sequence (P61169 whole entry): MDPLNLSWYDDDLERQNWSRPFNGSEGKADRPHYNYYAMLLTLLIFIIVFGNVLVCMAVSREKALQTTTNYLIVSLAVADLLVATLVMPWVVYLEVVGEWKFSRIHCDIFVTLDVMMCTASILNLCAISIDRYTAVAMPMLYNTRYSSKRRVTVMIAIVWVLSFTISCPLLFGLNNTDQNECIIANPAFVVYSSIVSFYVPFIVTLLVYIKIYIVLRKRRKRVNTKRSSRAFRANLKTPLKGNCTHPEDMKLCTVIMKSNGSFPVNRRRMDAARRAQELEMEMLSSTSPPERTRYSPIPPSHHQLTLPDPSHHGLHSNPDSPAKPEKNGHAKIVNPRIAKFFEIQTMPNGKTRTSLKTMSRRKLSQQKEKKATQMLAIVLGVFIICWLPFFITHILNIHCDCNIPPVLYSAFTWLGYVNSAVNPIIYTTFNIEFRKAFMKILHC
The experiment in a line: Inhibition of [3H]spiperone binding to cloned D2L receptors expressed in HEK-293 cells. Conditions: rat D2L in HEK-293 cells, read-out: Ki, D2 receptor.

In a further series the test system is 6-OHDA lesioned rats. The experiment in a line: Rotational experiment with 6-OHDA unilaterally lesioned rats. The class given is in vivo, rat. Conditions: 0.05 mg/kg, 21 days post lesion, recorded for 30 min.

T1 sequence (P19020 whole entry): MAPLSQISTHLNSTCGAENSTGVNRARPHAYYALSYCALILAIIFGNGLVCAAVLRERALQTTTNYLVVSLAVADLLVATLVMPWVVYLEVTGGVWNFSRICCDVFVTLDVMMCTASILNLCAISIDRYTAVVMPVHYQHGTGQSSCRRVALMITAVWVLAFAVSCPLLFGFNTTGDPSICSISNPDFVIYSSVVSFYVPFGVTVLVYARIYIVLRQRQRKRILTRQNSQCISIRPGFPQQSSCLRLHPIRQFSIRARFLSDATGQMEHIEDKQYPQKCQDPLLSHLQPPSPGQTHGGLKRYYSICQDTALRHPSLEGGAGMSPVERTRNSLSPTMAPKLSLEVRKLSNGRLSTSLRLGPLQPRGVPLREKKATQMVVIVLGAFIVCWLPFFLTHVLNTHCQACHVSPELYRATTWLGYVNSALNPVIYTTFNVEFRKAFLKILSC
T2 sequence (P35462 whole entry): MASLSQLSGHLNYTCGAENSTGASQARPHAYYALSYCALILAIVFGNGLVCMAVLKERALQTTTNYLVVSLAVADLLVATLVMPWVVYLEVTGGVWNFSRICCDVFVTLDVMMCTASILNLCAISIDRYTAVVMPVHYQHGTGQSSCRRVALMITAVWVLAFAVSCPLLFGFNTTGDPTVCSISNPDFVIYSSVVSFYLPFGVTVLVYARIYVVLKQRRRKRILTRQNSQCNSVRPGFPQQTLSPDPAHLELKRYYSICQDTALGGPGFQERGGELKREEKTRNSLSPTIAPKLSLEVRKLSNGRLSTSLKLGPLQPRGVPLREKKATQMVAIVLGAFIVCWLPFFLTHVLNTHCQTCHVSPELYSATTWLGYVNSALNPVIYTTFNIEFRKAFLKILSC

With `CCCN(CCN1CCN(C(=O)c2cc3ccccc3[nH]2)CC1)C1CCc2ccc(O)cc2C1` (stereo not drawn) (as salt: HCl) [Compound 40c, (4-{2-[(7-Hydroxy-1,2,3,4-tetrahydro-naphthalen-2-yl)-propyl-amino]-ethyl}-piperazin-1-yl)-(1H-indol-2-yl)-methanone], the melting point is 203 to 205 °C.

In turn, `CCCN(CCN1CCN(C(=O)c2c[nH]c3ccccc23)CC1)C1CCc2c(O)cccc2C1` (stereo not drawn) (as salt: HCl) [Compound 40f, (4-{2-[(5-Hydroxy-1,2,3,4-tetrahydro-naphthalen-2-yl)-propyl-amino]-ethyl}-piperazin-1-yl)-(1H-indol-3-yl)-methanone] showed a melting point of 147 to 151 °C.

`CCCN(CCN1CCN(C(=O)c2n[nH]c3ccccc23)CC1)C1CCc2c(O)cccc2C1` (stereo not drawn) (as salt: HCl) [Compound 40g, (4-{2-[(5-Hydroxy-1,2,3,4-tetrahydro-naphthalen-2-yl)-propyl-amino]-ethyl}-piperazin-1-yl)-(1H-indazol-3-yl)-methanone] gave a melting point of 167 to 170 °C.

Consider `CCCN(CCN1CCN(C(=O)c2cc3ccccc3s2)CC1)C1CCc2c(O)cccc2C1` (stereo not drawn) (as salt: HCl) [Compound 40i, Benzo[b]thiophen-2-yl-(4-{2-[(5-hydroxy-1,2,3,4-tetrahydro-naphthalen-2-yl)-propyl-amino]-ethyl}-piperazin-1-yl)-methanone], for which the melting point lay in the range of 131 to 134 °C.

The molecule `CCCN(CCN1CCN(C(=O)c2cnc3ccccc3c2)CC1)C1CCc2c(O)cccc2C1` (stereo not drawn) (as salt: HCl) [Compound 40j, (4-{2-[(5-Hydroxy-1,2,3,4-tetrahydro-naphthalen-2-yl)-propyl-amino]-ethyl}-piperazin-1-yl)-quinolin-3-yl-methanone] gave a melting point of 142 to 146 °C.

In turn, `CCCN(CCN1CCN(Cc2ccc(O)c3ncccc23)CC1)C1CCc2c(O)cccc2C1` (stereo not drawn) (as salt: hydrochloride) [Compound 12b, 5-((4-(2-((5-hydroxy-1,2,3,4-tetrahydronaphthalen-2-yl)(propyl)amino)ethyl)piperazin-1-yl)methyl)quinolin-8-ol] had a melting point of 252 to 255 °C.

Molecule `CCCN(CCN1CCN(Cc2ccc3[nH]ccc3c2)CC1)C1CCc2ccc(O)cc2C1` (stereo not drawn) (as salt: oxalate) [Compound 40b, 7-({2-[4-(1H-Indol-5-ylmethyl)-piperazin-1-yl]-ethyl}-propyl-amino)-5,6,7,8-tetrahydro-naphthalen-2-ol] displayed a melting point of 198 to 203 °C.

In turn, `CCCN(CCN1CCN(Cc2cc3ccccc3[nH]2)CC1)C1CCc2ccc(O)cc2C1` (stereo not drawn) (as salt: oxalate) [Compound 40d, 7-({2-[4-(1H-Indol-2-ylmethyl)-piperazin-1-yl]-ethyl}-propyl-amino)-5,6,7,8-tetrahydro-naphthalen-2-ol] showed a melting point of 135 to 137 °C.

Molecule `CCCN(CCN1CCN(c2ccc3[nH]ccc3c2)CC1)C1CCc2ccc(O)cc2C1` (stereo not drawn) (as salt: oxalate) [Compound 52, 7-((2-(4-(1H-indol-5-yl)piperazin-1-yl)ethyl)(propyl)amino)-5,6,7,8-tetrahydro-naphthalen-2-ol] yielded a melting point of 179 to 183 °C.

On to `CCCN(CCN1CCN(C(=O)c2cc3ccccc3[nH]2)CC1)C1CCc2c(O)cccc2C1` (racemic) [Compound 40e, (4-{2-[(5-Hydroxy-1,2,3,4-tetrahydro-naphthalen-2-yl)-propyl-amino]-ethyl}-piperazin-1-yl)-(1H-indol-2-yl)-methanone], for which, at D3 receptor, the inhibition constant (Ki) worked out at 0.55 nM.

`CCCN(CCN1CCN(C(=O)c2cc3ccccc3[nH]2)CC1)C1CCc2c(O)cccc2C1` (single isomer, unassigned; (+)) (as salt: HCl) [Compound (+)-40e, (+)-(4-{2-[(5-Hydroxy-1,2,3,4-tetrahydro-naphthalen-2-yl)-propyl-amino]-ethyl}-piperazin-1-yl)-(1H-indol-2-yl)-methanone] displayed a melting point of 169 to 170 °C.

Turning to `CCCN(CCN1CCN(c2ccnc3c(O)cccc23)CC1)C1CCc2c(O)cccc2C1` (single isomer, unassigned; (+)) (as salt: hydrochloride) [(+)19b, (+)-4-(4-(2-((5-hydroxy-1,2,3,4-tetrahydronaphthalen-2-yl) (propyl)amino)ethyl)piperazin-1-yl)quinolin-8-ol], the melting point lay in the range of 230 to 232 °C.

In the case of `CCCN(CCN1CCN(c2ccnc3c(O)cccc23)CC1)C1CCc2ccc(O)cc2C1` (single isomer, unassigned; (+)) [(+)19a, (+)-4-(4-(2-((7-hydroxy-1,2,3,4-tetrahydronaphthalen-2-yl) (propyl)amino)ethyl)piperazin-1-yl)quinolin-8-ol], the “Agonism at D3 compared with dopamine” value at hD3 receptor is “full or near-complete agonism”.

With `CCCN(CCN1CCN(C(=O)c2cc3ccccc3[nH]2)CC1)C1CCc2c(O)cccc2C1` (single isomer, unassigned; (-)) (as salt: HCl) [Compound (−)-40e, (−)-(4-{2-[(5-Hydroxy-1,2,3,4-tetrahydro-naphthalen-2-yl)-propyl-amino]-ethyl}-piperazin-1-yl)-(1H-indol-2-yl)-methanone], the melting point was in the range of 168 to 169 °C.

Turning to `CCCN(CCN1CCN(c2ccnc3c(O)cccc23)CC1)C1CCc2c(O)cccc2C1` (single isomer, unassigned; (-)) (as salt: hydrochloride) [Compound (−)19b, (−)-4-(4-(2-((5-hydroxy-1,2,3,4-tetrahydronaphthalen-2-yl) (propyl)amino)ethyl)piperazin-1-yl)quinolin-8-ol], the melting point lay within 237 to 240 °C.

In the case of `CCCN(CCN1CCN(Cc2ccc(O)c3ncccc23)CC1)C1CCc2ccc(O)cc2C1` (stereo not drawn) [Compound 12a, 5-((4-(2-((7-hydroxy-1,2,3,4-tetrahydronaphthalen-2-yl)(propyl)amino)ethyl)piperazin-1-yl)methyl) quinolin-8-ol], the Ki was 86 nM on D2L receptor and 5.57 nM at D3 receptor.

Take `CCCN(CCN1CCN(Cc2ccc(O)c3ncccc23)CC1)C1CCc2c(O)cccc2C1` (stereo not drawn) [Compound 12b, 5-((4-(2-((5-hydroxy-1,2,3,4-tetrahydronaphthalen-2-yl)(propyl)amino)ethyl)piperazin-1-yl)methyl)quinolin-8-ol]: the affinity at D3 receptor corresponds to a Ki of 3.71 nM.

In the case of `CCCN(CCN1CCN(c2ccnc3c(O)cccc23)CC1)C1CCc2c(O)cccc2C1` (stereo not drawn) [Compound 19b], at D3 receptor, the Ki came to 1.35 nM.

Turning to `CCCN(CCN1CCN(Cc2ccc3[nH]ccc3c2)CC1)C1CCc2ccc(O)cc2C1` (stereo not drawn) [Compound 40b, 7-({2-[4-(1H-Indol-5-ylmethyl)-piperazin-1-yl]-ethyl}-propyl-amino)-5,6,7,8-tetrahydro-naphthalen-2-ol], the results for the Ki at D2L receptor and on D3 receptor were 144 nM and 3.87 nM, respectively.

As to `CCCN(CCN1CCN(C(=O)c2cc3ccccc3[nH]2)CC1)C1CCc2ccc(O)cc2C1` (stereo not drawn) [Compound 40c, (4-{2-[(7-Hydroxy-1,2,3,4-tetrahydro-naphthalen-2-yl)-propyl-amino]-ethyl}-piperazin-1-yl)-(1H-indol-2-yl)-methanone], the Ki on D2L receptor amounted to 116 nM; at D3 receptor, 3.72 nM. Moreover, the “D2/D3 (Ki ratio, binding selectivity)” value on D3 receptor (Ki D2 / Ki D3) is 31.

For the molecule `CCCN(CCN1CCN(C(=O)c2c[nH]c3ccccc23)CC1)C1CCc2c(O)cccc2C1` (stereo not drawn) [Compound 40f, (4-{2-[(5-Hydroxy-1,2,3,4-tetrahydro-naphthalen-2-yl)-propyl-amino]-ethyl}-piperazin-1-yl)-(1H-indol-3-yl)-methanone], the values for the Ki on D2L receptor and on D3 receptor were 58.9 nM and 3.62 nM, respectively.

As to `CCCN(CCN1CCN(C(=O)c2n[nH]c3ccccc23)CC1)C1CCc2c(O)cccc2C1` (stereo not drawn) [Compound 40g, (4-{2-[(5-Hydroxy-1,2,3,4-tetrahydro-naphthalen-2-yl)-propyl-amino]-ethyl}-piperazin-1-yl)-(1H-indazol-3-yl)-methanone], the values for the Ki at D2L receptor and at D3 receptor were 28 nM and 2.83 nM, respectively.

Consider `CCCN(CCN1CCN(C(=O)c2cc3ccccc3s2)CC1)C1CCc2c(O)cccc2C1` (stereo not drawn) [Compound 40i, Benzo[b]thiophen-2-yl-(4-{2-[(5-hydroxy-1,2,3,4-tetrahydro-naphthalen-2-yl)-propyl-amino]-ethyl}-piperazin-1-yl)-methanone], for which the Ki on D2L receptor is 76.9 nM; on D3 receptor, 1.69 nM.

As for `CCCN(CCN1CCN(C(=O)c2cnc3ccccc3c2)CC1)C1CCc2c(O)cccc2C1` (stereo not drawn) [Compound 40j, (4-{2-[(5-Hydroxy-1,2,3,4-tetrahydro-naphthalen-2-yl)-propyl-amino]-ethyl}-piperazin-1-yl)-quinolin-3-yl-methanone], the Ki on D2L receptor is 158 nM.

Consider `CCCN(CCN1CCN(c2ccc3[nH]ccc3c2)CC1)C1CCc2ccc(O)cc2C1` (stereo not drawn) [Compound 52, 7-((2-(4-(1H-indol-5-yl)piperazin-1-yl)ethyl)(propyl)amino)-5,6,7,8-tetrahydro-naphthalen-2-ol], for which the results for the Ki at D2L receptor and on D3 receptor were 30 nM and 2 nM, respectively.

Regarding `CCCN(CCN1CCN(C(=O)c2ccc3[nH]ccc3c2)CC1)[C@H]1CCc2c(O)cccc2C1` [Compound (−)-45, (S)-(4-{2-[(5-Hydroxy-1,2,3,4-tetrahydro-naphthalen-2-yl)-propyl-amino]-ethyl}-piperazin-1-yl)-(1H-indol-5-yl)-methanone], the figures for the Ki at D2L receptor and on D3 receptor were 157 nM and 2.27 nM, respectively.

With `CN1CCc2cccc3c2[C@H]1Cc1ccc(O)c(O)c1-3` [apomorphine], the Average contralateral rotation in the series with 6-OHDA lesioned rats is reported as > 250.

The values above are taken from US9034877B2 (Wayne State University, priority 2009, dated 2015).
